In US20090118331A1, “Use of Lobeline Epimers in the Treatment of Central Nervous System Diseases, Pathologies, and Drug Abuse” (priority 2007, published 2009):
Several values for one entry are separate records, joined by “and”; a condition that tells them apart may be missing. Equal values may be shown once.

Key:
[1] = Lobeline conversion to epimer in the buffer system used at 37° C. in the VMAT2 uptake study (HPLC); assay type: physicochemical; conditions: VMAT2 uptake buffer, 37° C.
[2] = Lobeline conversion to epimer in deionized water (HPLC); assay type: physicochemical
Procedure: Extensive in vitro studies on the epimerization of lobeline were conducted in a variety of aqueous media. […] The concentration of the lobeline solution (500 mL) was ca. 0.5 mg/mL, and 1.5 mL aliquot parts were removed in triplicate at each time point and analyzed by HPLC. Corresponding pH measurements were performed with a Coming Model 240 pH meter.

clinical = conditions: human, in vivo
Procedure: Three consecutive doses of lobeline (either 30, 45 and 45 mg in the first study group, or 60, 60 and 60 mg in the second group) were administered to human volunteers at 0800, 1200 and 1600 over two full inpatient days. The pharmacokinetics of lobeline and epimer were then assessed in each subject. […] A crude index of accumulation (non-steady state) was obtained by dividing the sixth dose trough concentration by that observed for the fifth dose.

[3] = Pharmacokinetics of lobeline and epimer in human subjects after sublingual lobeline administration (7.5, 15, 30 mg); conditions: for CL/F (extravascular clearance): epimer
Excerpt: The pharmacokinetics of lobeline and lobeline epimer were examined in eight human subjects (Sub) after sublingual lobeline administration.

[4] = epimer in plasma, individual human subjects, sublingual lobeline 7.50 mg
[5] = epimer in plasma, individual human subjects, sublingual lobeline 15.0 mg
[6] = epimer in plasma, individual human subjects, sublingual lobeline 30.0 mg
[7] = individual human subjects, sublingual lobeline 7.50 mg
[8] = individual human subjects, sublingual lobeline 15.0 mg
[9] = individual human subjects, sublingual lobeline 30.0 mg

CN1[C@H](CC(=O)c2ccccc2)CCC[C@H]1C[C@H](O)c1ccccc1 (single isomer, unassigned; epimer 2) [Epimer, 2-[6S-(2S-hydroxy-2-phenyl-ethyl)-1-methyl-piperidin-2S-yl]-1-phenyl-ethanone]
Epimer % ([1]; T5, sample age 0:05): 3.34%
Epimer % ([1]; T10, sample age 0:10): 5.47%
Epimer % ([1]; T15, sample age 0:15): 8.62%
Epimer % ([1]; T25, sample age 0:25): 13.2%
Epimer % ([1]; T30, sample age 0:30): 14.9%
Epimer % ([1]; T35, sample age 0:35): 16.2%
Epimer % ([1]; T40, sample age 0:40): 17.7%
Epimer % ([1]; T45, sample age 0:45): 18.9%
Epimer % ([1]; T50, sample age 0:50): 20.1%
Epimer % ([1]; T55, sample age 0:55): 21.0%
Epimer % ([1]; T60, sample age 1:00): 22.1%
Epimer % ([1]; T70, sample age 1:10): 24.3%
Epimer % ([1]; T80, sample age 1:20): 26.1%
Epimer % ([1]; T90, sample age 1:31): 26.9%
Epimer % ([1]; T100, sample age 1:40): 28.0%
Epimer % ([1]; T110, sample age 1:50): 29.2%
Epimer % ([1]; T120, sample age 2:00): 30.3%
% Epimer (Mean ± SD) ([2]; Solution 1 (Lobeline in “fresh” DI Water), time 0, pH 6.02): 0.83%
% Epimer (Mean ± SD) ([2]; Solution 1 (“fresh” DI Water), 15 min, pH 6.03-6.24): 0.83 ± 0.054%
% Epimer (Mean ± SD) ([2]; Solution 1 (“fresh” DI Water), 30 min, pH 6.02-6.24): 0.99 ± 0.164%
% Epimer (Mean ± SD) ([2]; Solution 1 (“fresh” DI Water), 45 min, pH 6.13-6.37): 0.95 ± 0.144%
% Epimer (Mean ± SD) ([2]; Solution 1 (“fresh” DI Water), 1 h, pH 6.26-6.52): 1.00 ± 0.196%
% Epimer (Mean ± SD) ([2]; Solution 1 (“fresh” DI Water), 80 min, pH 6.19-6.50): 1.46 ± 0.112%
% Epimer (Mean ± SD) ([2]; Solution 1 (“fresh” DI Water), 100 min, pH 6.16-6.50): 1.50 ± 0.139%
% Epimer (Mean ± SD) ([2]; Solution 1 (“fresh” DI Water), 2 h, pH 5.63-5.88): 1.58 ± 0.599%
% Epimer (Mean ± SD) ([2]; Solution 2 (Lobeline in “8-h” DI Water), time 0, pH 7.87): 1.03%
% Epimer (Mean ± SD) ([2]; Solution 2 (“8-h” DI Water), 15 min, pH 7.78-8.21): 0.66 ± 0.273%
% Epimer (Mean ± SD) ([2]; Solution 2 (“8-h” DI Water), 30 min, pH 7.58-7.85): 0.52 ± 0.214%
% Epimer (Mean ± SD) ([2]; Solution 2 (“8-h” DI Water), 45 min, pH 7.66-7.68): 0.65 ± 0.056%
% Epimer (Mean ± SD) ([2]; Solution 2 (“8-h” DI Water), 1 h, pH 6.84-7.11): 0.80 ± 0.087%
% Epimer (Mean ± SD) ([2]; Solution 2 (“8-h” DI Water), 80 min, pH 6.53-6.79): 0.90 ± 0.150%
% Epimer (Mean ± SD) ([2]; Solution 2 (“8-h” DI Water), 100 min, pH 6.24-6.51): 1.01 ± 0.207%
% Epimer (Mean ± SD) ([2]; Solution 2 (“8-h” DI Water), 2 h, pH 6.21-6.49): 1.22 ± 0.257%
ratio of epimer to lobeline obtained in vitro ([2]; in vitro with water at pH 7): approximately 0.5
change in epimer concentration ([2]; lobeline dissolved in deionized water, over a 2-h period at 25° C.): < 1%
half-life (clinical): 3.47 h
time at which geometric mean plasma concentration peaked (clinical): 1.38 h
dose linearity of Cmax and CL/F ([3]; dose range from 7.5 to 30 mg, sublingual, human): Linear kinetics
AUC(0-∞) [3, 4]: 11.92 ng·h/mL
AUCext (percent of AUC(0-∞) determined by extrapolation) [3, 4]: 40.22% and 37.47% and 21.02% and 13.37% and 29.10% and 11.02% and 21.05% and 22.14%
Tlast (time of last measurable plasma concentration) [3, 4]: 2.00 hr and 3.00 hr (4×) and 6.00 hr and 12.00 hr and 4.00 hr
λz (terminal exponential rate constant) [3, 4]: 0.6868 h⁻¹ and 0.3858 h⁻¹ and 0.6119 h⁻¹ and 0.3882 h⁻¹ and 0.531 h⁻¹ and 0.2004 h⁻¹ and 0.6101 h⁻¹ and 0.489 h⁻¹
AUC(0-∞) [3, 5]: 24.30 ng·h/mL
AUCext (percent of AUC(0-∞) determined by extrapolation) [3, 5]: 10.70% and 12.80% and 22.39% and 5.75% and 10.95% and 14.68% and 8.64% and 8.10%
Tlast (time of last measurable plasma concentration) [3, 5]: 4.17 hr and 4.00 hr (3×) and 8.00 hr and 11.00 hr and 4.03 hr and 6.00 hr
λz (terminal exponential rate constant) [3, 5]: 0.6055 h⁻¹ and 0.6196 h⁻¹ and 0.4338 h⁻¹ and 0.3591 h⁻¹ and 0.684 h⁻¹ and 0.1908 h⁻¹ and 0.7266 h⁻¹ and 0.5175 h⁻¹
AUC(0-t) [3, 6]: 83.89 ng·h/mL and 20.12 ng·h/mL and 87.17 ng·h/mL
AUCext (percent of AUC(0-∞) determined by extrapolation) [3, 6]: 3.89% and 10.44% and 5.56% and 15.37% and 11.12% and 3.26% and 7.85% and 5.01%
Tlast (time of last measurable plasma concentration) [3, 6]: 6.00 hr (2×) and 4.00 hr (3×) and 8.00 hr (2×) and 22.75 hr
λz (terminal exponential rate constant) [3, 6]: 0.6184 h⁻¹ and 0.6931 h⁻¹ and 0.5281 h⁻¹ and 0.25 h⁻¹ and 0.7194 h⁻¹ and 0.1513 h⁻¹ and 0.8194 h⁻¹ and 0.3741 h⁻¹
CL/F (extravascular clearance) [3, 7]: 282.7 mL/min/kg and 110.1 mL/min/kg and 240.7 mL/min/kg and 70.7 mL/min/kg and 159.2 mL/min/kg and 17.4 mL/min/kg and 225.5 mL/min/kg and 144.2 mL/min/kg
CL/F (extravascular clearance) [3, 8]: 188.2 mL/min/kg and 120.8 mL/min/kg and 161.7 mL/min/kg and 56.2 mL/min/kg and 175.6 mL/min/kg and 14.5 mL/min/kg and 180.2 mL/min/kg and 97.3 mL/min/kg
CL/F (extravascular clearance) [3, 9]: 153.7 mL/min/kg and 184.5 mL/min/kg and 146.9 mL/min/kg and 55.5 mL/min/kg and 285.9 mL/min/kg and 13.7 mL/min/kg and 259.4 mL/min/kg and 74.9 mL/min/kg
ratio of the cumulative amount of urinary epimer to lobeline ([3]; human subjects, sublingual lobeline): approximately 0.5
Combined urinary excretion of lobeline and epimer ([3]; human, in vivo): ≤ 0.5%
AUC(0-inf) ([3]; human, in vivo, 7.5 mg, epimer in plasma, individual human subjects, sublingual lobeline 7.50 mg): 13.2 ng·h/mL
AUC(0-inf) ([3]; human, in vivo, 15 mg, epimer in plasma, individual human subjects, sublingual lobeline 15.0 mg): 17.3 ng·h/mL
AUC(0-inf) ([3]; human, in vivo, 30 mg, epimer in plasma, individual human subjects, sublingual lobeline 30.0 mg): 91.8 ng·h/mL
half-life ([3]; human, in vivo, 30 mg, Terminal exponential phase half-life (T1/2), average): ~1.7 h
half-life ([3]; human, in vivo, 30 mg, Terminal exponential phase half-lives (T1/2 values), range): 1 to 5 h
Tmax ([3]; human, in vivo, 30 mg, Tmax values, range): 0.25 to 3 h
Tmax ([3]; human, in vivo, 30 mg, Tmax, average): 1.3 h
half-life ([3]; human, in vivo, mean T1/2 values, human subjects, sublingual lobeline): ~2 h
ratio of epimer to lobeline in plasma (Cmax and area under the curve; x to 1) ([3]; humans receiving sublingual lobeline 7.5, 15 and 30 mg): 8-10 and 8 to 10
AUC(0-∞) Ratio (Epi/Lob) [3, 7]: 8.23 and 7.66 and 4.64 and 8.82 and 4.97 and 10.29 and 6.66 and 7.29
AUC(0-∞) Ratio (Epi/Lob) [3, 8]: 10.60 and 7.17 and 8.44 and 9.79 and 6.74 and 12.94 and 6.63 and 10.97
AUC(0-∞) Ratio (Epi/Lob) [3, 9]: 11.77 and 6.33 and 8.63 and 10.30 and 6.07 and 11.84 and 9.02 and 11.44
